Assay results from paper PMC3676432 (Journal of neurochemistry, 2013).

What was measured:
Format in all cases: cell-based
[1] = target: wild-type mouse muscle nAChR (αC192S-C193S background) (Mus musculus, UniProt P02716+P04756+P04760, C212S/C213S); assay: Effect of reducing/oxidizing reagents on ACh-induced current amplitude; details: DTT 10 mM, 2 min, ACh EC20–50
[2] = target: mouse muscle nAChR αT254C (Mus musculus, UniProt P02716+P04756+P04760, C212S/C213S/T274C); assay: as above; details: DTT 10 mM, 2 min; T254C; ACh EC20–50
[3] = target: mouse muscle nAChR αT254C+M278C (Mus musculus, UniProt P02716+P04756+P04760, C212S/C213S/M298C/T274C); details: 2 min
[4] = target: mouse muscle nAChR αT254C+L279C (Mus musculus, UniProt P02716+P04756+P04760, C212S/C213S/L299C/T274C); details: 2 min
[5] = second DTT 10 mM, after Cu:Phen and EGTA

Sequence of mouse muscle nAChR αT254C+M278C (P04756 21-457 C212S/C213S/T274C/M298C): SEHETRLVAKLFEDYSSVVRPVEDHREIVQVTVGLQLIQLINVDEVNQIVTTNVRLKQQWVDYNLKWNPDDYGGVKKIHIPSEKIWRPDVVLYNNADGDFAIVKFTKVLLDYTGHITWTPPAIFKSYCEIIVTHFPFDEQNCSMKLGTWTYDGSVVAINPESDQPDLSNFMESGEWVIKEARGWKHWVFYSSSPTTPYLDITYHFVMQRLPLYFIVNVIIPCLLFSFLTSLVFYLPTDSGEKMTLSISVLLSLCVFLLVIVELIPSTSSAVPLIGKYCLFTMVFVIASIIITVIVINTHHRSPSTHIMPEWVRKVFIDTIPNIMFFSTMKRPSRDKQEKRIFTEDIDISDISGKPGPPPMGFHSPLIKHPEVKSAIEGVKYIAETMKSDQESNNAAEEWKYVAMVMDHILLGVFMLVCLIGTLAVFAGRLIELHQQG
Sequence of mouse muscle nAChR αT254C+M278C (P09690 24-501 partner): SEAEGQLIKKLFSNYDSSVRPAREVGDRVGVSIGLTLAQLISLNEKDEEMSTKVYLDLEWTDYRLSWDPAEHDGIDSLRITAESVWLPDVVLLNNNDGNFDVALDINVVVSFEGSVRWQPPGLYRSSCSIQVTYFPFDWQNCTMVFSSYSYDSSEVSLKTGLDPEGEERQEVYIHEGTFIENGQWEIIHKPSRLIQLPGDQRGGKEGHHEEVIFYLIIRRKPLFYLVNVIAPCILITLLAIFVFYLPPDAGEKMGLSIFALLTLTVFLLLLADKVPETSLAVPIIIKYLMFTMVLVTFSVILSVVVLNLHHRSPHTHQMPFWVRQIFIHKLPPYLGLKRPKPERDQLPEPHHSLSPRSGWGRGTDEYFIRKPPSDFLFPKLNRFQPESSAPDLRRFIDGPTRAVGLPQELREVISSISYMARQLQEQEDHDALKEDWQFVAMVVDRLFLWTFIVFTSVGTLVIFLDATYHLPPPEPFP
Sequence of mouse muscle nAChR αT254C+M278C (P04760 23-519): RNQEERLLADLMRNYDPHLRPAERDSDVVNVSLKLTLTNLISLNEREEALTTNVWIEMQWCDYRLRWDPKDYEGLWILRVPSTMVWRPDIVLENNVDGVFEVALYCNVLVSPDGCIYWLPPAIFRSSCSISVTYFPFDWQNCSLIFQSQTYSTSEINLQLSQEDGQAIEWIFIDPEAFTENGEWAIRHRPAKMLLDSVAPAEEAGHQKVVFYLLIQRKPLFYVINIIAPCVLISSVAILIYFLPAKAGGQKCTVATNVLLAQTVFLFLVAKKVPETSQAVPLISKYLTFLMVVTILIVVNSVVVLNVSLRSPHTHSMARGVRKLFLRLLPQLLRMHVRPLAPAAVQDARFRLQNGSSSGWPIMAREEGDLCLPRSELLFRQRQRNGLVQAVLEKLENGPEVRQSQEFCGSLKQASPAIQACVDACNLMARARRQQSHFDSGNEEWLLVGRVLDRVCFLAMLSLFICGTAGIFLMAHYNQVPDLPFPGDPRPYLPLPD
Sequence of mouse muscle nAChR αT254C+M278C (P02716 25-520): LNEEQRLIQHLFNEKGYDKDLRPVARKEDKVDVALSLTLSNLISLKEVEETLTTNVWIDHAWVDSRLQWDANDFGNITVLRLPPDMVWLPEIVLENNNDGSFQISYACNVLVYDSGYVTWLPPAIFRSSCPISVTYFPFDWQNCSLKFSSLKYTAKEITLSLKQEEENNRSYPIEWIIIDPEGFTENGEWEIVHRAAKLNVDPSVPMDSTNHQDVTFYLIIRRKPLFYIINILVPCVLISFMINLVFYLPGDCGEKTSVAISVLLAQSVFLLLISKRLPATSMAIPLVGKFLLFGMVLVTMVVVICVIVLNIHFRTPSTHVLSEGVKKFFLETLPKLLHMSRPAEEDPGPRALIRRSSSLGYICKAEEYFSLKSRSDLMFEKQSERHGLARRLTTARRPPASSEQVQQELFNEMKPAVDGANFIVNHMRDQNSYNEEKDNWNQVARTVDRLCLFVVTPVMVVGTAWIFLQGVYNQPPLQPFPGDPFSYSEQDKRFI
Sequence of mouse muscle nAChR αT254C+L279C (P04756 21-457 C212S/C213S/T274C/L299C): as the sequence (P04756 21-457 C212S/C213S/T274C/M298C) above, with C278M, L279C counted along it
Sequence of mouse muscle nAChR αT254C+L279C (P09690 24-501 partner): as the sequence (P09690 24-501 partner) above
Sequence of mouse muscle nAChR αT254C+L279C (P04760 23-519): as the sequence (P04760 23-519) above
Sequence of mouse muscle nAChR αT254C+L279C (P02716 25-520): as the sequence (P02716 25-520) above
Sequence of wild-type mouse muscle nAChR (αC192S-C193S background) (P04756 21-457 C212S/C213S): as the sequence (P04756 21-457 C212S/C213S/T274C/M298C) above, with C254T, C278M counted along it
Sequence of wild-type mouse muscle nAChR (αC192S-C193S background) (P09690 24-501 partner): as the sequence (P09690 24-501 partner) above
Sequence of wild-type mouse muscle nAChR (αC192S-C193S background) (P04760 23-519): as the sequence (P04760 23-519) above
Sequence of wild-type mouse muscle nAChR (αC192S-C193S background) (P02716 25-520): as the sequence (P02716 25-520) above
Sequence of mouse muscle nAChR αT254C (P04756 21-457 C212S/C213S/T274C): as the sequence (P04756 21-457 C212S/C213S/T274C/M298C) above, with C278M counted along it
Sequence of mouse muscle nAChR αT254C (P09690 24-501 partner): as the sequence (P09690 24-501 partner) above
Sequence of mouse muscle nAChR αT254C (P04760 23-519): as the sequence (P04760 23-519) above
Sequence of mouse muscle nAChR αT254C (P02716 25-520): as the sequence (P02716 25-520) above

## O[C@@H](CS)[C@@H](O)CS (racemic) [DTT, Dithiothreitol]
[1]
  ACh-induced current amplitude after DTT compared to initial current: not significantly altered
[2]
  ACh-induced current amplitude after DTT compared to initial current: not significantly altered
[3]; [5]
  increase of current amplitudes by DTT after Cu:Phen: 29 ± 1%
[4]; [5]
  decrease of current amplitudes by DTT after Cu:Phen: 47 ± 11%

## O=C(O)CN(CCOCCOCCN(CC(=O)O)CC(=O)O)CC(=O)O [EGTA, Ethylene glycol tetraacetic acid]
[3]; EGTA 2 mM, after Cu:Phen
  EGTA effect on ACh-induced current amplitudes: 1 ± 2%
[4]; EGTA 2 mM, after Cu:Phen
  EGTA effect on ACh-induced current amplitudes: −9 ± 3%
